Measurements from patent publication US9763942B2, “Serine/threonine kinase inhibitors” (Array BioPharma Inc., priority 2013, dated 2017).
Like-named read-outs stand apart in the source and are kept apart here.

Target: T1, human ERK-2 (Mitogen Activated Kinase 1) (Homo sapiens, UniProt P28482)
T1 construct: n-terminal 6-His fusion protein in E. coli and corresponding to aa 8-360; 6-His (N); made in house; host or cells: E. coli
Assay: ERK-2 Enzymatic Assay
Type: biochemical
Source text: Table 1 contains representative data for Examples disclosed herein.

[1] = ERK-2 enzymatic assay, read-out: IC50

T1 sequence (P28482 8-360): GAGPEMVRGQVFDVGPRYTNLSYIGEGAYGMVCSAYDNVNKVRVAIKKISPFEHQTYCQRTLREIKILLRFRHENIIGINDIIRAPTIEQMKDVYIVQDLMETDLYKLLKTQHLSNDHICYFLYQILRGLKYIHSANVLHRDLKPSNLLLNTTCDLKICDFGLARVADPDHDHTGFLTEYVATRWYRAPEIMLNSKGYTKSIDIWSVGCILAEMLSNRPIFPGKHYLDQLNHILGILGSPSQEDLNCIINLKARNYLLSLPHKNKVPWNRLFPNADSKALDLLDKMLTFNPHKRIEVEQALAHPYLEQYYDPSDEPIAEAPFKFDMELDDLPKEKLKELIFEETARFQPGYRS

Row | SMILES | IC50 [1] [nM] | IC50 (5 nM ERK-2 enzyme, 25 μM ATP (observed Km), Omnia peptide S/T17, single assay or mean of multiple assays, read-out: Biological Example 1 IC50) [nM]
1 | CCC(C)Cn1nnc2cc(-c3ccnc(Nc4cnn(C)n4)n3)ccc21 (stereo not drawn) [Example 100, N-(2-methyl-2H-1,2,3-triazol-4-yl)-4-(1-(2-methylbutyl)-1H-benzo[d][1,2,3]triazol-5-yl)pyrimidin-2-amine] | < 100 | 
2 | COc1ccc(Cn2nnc3cc(-c4ccnc(N[C@@H](C)CO)n4)ccc32)cc1F [Example 19, (S)-2-((4-(1-(3-fluoro-4-methoxybenzyl)-1H-benzo[d][1,2,3]triazol-5-yl)pyrimidin-2-yl)amino)propan-1-ol] | < 100 | 
3 | COc1ccc(Cn2nnc3cc(-c4ccnc(NC5CCC5)n4)ccc32)cc1F [Example 12, N-cyclobutyl-4-(1-(3-fluoro-4-methoxybenzyl)-1H-benzo[d][1,2,3]triazol-5-yl)pyrimidin-2-amine] | < 100 | 
4 | Cn1nccc1Nc1nccc(-c2ccc3c(c2)nnn3Cc2ccc(F)cc2F)n1 [Example 123] | < 100 | 
5 | COc1ccc(Cn2nnc3cc(-c4ccnc(Nc5cnn(C)n5)n4)ccc32)cc1F [Example 9, 4-(1-(3-fluoro-4-methoxybenzyl)-1H-benzo[d][1,2,3]triazol-5-yl)-N-(2-methyl-2H-1,2,3-triazol-4-yl)pyrimidin-2-amine] | < 100 | 
6 | CN1C[C@@H](n2nnc3cc(-c4ccnc(Nc5ccnn5C)n4)ccc32)[C@H](c2ccc(F)c(F)c2)C1 [Example 75, 4-(1-((3S,4R)-4-(3,4-difluorophenyl)-1-methylpyrrolidin-3-yl)-1H-benzo[d][1,2,3]triazol-5-yl)-N-(1-methyl-1H-pyrazol-5-yl)pyrimidin-2-amine] | < 100 | 
7 | COc1ccc(Cn2nnc3cc(-c4ccnc(NCC5CC5)n4)ccc32)cc1F [Example 14, N-(cyclopropylmethyl)-4-(1-(3-fluoro-4-methoxybenzyl)-1H-benzo[d][1,2,3]triazol-5-yl)pyrimidin-2-amine] | < 100 | 
8 | COCCN1C[C@@H](n2nnc3cc(-c4ccnc(Nc5ccnn5C)n4)ccc32)[C@H](c2ccc(F)cc2)C1 [Example 87, 4-(1-((3S,4R)-4-(4-fluorophenyl)-1-(2-methoxyethyl)pyrrolidin-3-yl)-1H-benzo[d][1,2,3]triazol-5-yl)-N-(1-methyl-1H-pyrazol-5-yl)pyrimidin-2-amine] | < 100 | 
9 | COc1ccc(Cn2nnc3cc(-c4ccnc(NCC(C)(C)O)n4)ccc32)cc1F [Example 18, 1-((4-(1-(3-fluoro-4-methoxybenzyl)-1H-benzo[d][1,2,3]triazol-5-yl)pyrimidin-2-yl)amino)-2-methylpropan-2-ol] | < 100 | 
10 | Cn1nccc1Nc1nccc(-c2ccc3c(c2)nnn3C2CNCCC2c2ccc(F)cc2)n1 (stereo not drawn) [Example 90, 4-(1-(4-(4-fluorophenyl)piperidin-3-yl)-1H-benzo[d][1,2,3]triazol-5-yl)-N-(1-methyl-1H-pyrazol-5-yl)pyrimidin-2-amine] | < 100 | 
11 | Cn1nccc1Nc1nccc(-c2cnc3c(c2)nnn3Cc2cccc(Cl)c2)n1 [Example 124, 4-(3-(3-chlorobenzyl)-3H-[1,2,3]triazolo[4,5-b]pyridin-6-yl)-N-(1-methyl-1H-pyrazol-5-yl)pyrimidin-2-amine] | < 100 | 
12 | Cn1nccc1Nc1nccc(-c2ccc3c(c2)nnn3CCc2cccc(Cl)c2)n1 [Example 50, 4-(1-(3-chlorophenethyl)-1H-benzo[d][1,2,3]triazol-5-yl)-N-(1-methyl-1H-pyrazol-5-yl)pyrimidin-2-amine] | < 100 | 
13 | COCC(C)(C)Cn1nnc2cc(-c3ccnc(Nc4ccnn4C)n3)ccc21 [Example 46, 4-(1-(3-methoxy-2,2-dimethylpropyl)-1H-benzo[d][1,2,3]triazol-5-yl)-N-(1-methyl-1H-pyrazol-5-yl)pyrimidin-2-amine] | < 100 | 
14 | COc1ccc(Cn2nnc3cc(-c4ccnc(Nc5nnn(C)n5)n4)ccc32)cc1F [Example 26, 4-(1-(3-fluoro-4-methoxybenzyl)-1H-benzoyl[d][1,2,3]triazol-5-yl)-N-(2-methyl-2H-tetrazol-5-yl)pyrimidin-2-amine] | < 100 | 
15 | Cn1nccc1Nc1nccc(-c2ccc3c(c2)nnn3CCc2ccccc2Cl)n1 [Example 49, 4-(1-(2-chlorophenethyl)-1H-benzo-[d][1,2,3]triazol-5-yl)-N-(1-methyl-1H-pyrazol-5-yl)pyrimidin-2-amine] | < 100 | 
16 | COc1ccc(Cn2nnc3cc(-c4ccnc(Nc5ccnn5C)n4)ccc32)cc1 [Example 65, 4-(1-(4-methoxybenzyl)-1H-benzo[d][1,2,3]triazol-5-yl)-N-(1-methyl-1H-pyrazol-5-yl)pyrimidin-2-amine] | < 100 | 
17 | Cc1ncccc1Cn1nnc2cc(-c3ccnc(Nc4ccnn4C)n3)ccc21 [Example 53, N-(1-methyl-1H-pyrazol-5-yl)-4-(1-((2-methylpyridin-3-yl)methyl)-1H-benzo[d][1,2,3]triazol-5-yl)pyrimidin-2-amine] | < 100 | 
18 | CN(C)CC(c1ccc(Cl)c(F)c1)n1nnc2cc(-c3ccnc(Nc4ccnn4C)n3)ccc21 (stereo not drawn) [Example 91, 4-(1-(1-(4-chloro-3-fluorophenyl)-2-(dimethylamino)ethyl)-1H-benzo[d][1,2,3]triazol-5-yl)-N-(1-methyl-1H-pyrazol-5-yl)pyrimidin-2-amine] | < 100 | 

Row | SMILES | IC50 [1] [nM] | IC50 (5 nM ERK-2 enzyme, 25 μM ATP (observed Km), Omnia peptide S/T17, single assay or mean of multiple assays, read-out: Biological Example 1 IC50) [nM]
19 | COc1cccc(F)c1CN1C[C@H](n2nnc3cc(-c4ccnc(Nc5ccnn5C)n4)ccc32)CC(F)(F)C1 [Example 106, (R)-4-(1-(5,5-difluoro-1-(2-fluoro-6-methoxybenzyl)piperidin-3-yl)-1H-benzo[d][1,2,3]triazol-5-yl)-N-(1-methyl-1H-pyrazol-5-yl)pyrimidin-2-amine] | < 100 | 
20 | COc1cccc(F)c1CN1CC(n2nnc3cc(-c4ccnc(Nc5ccnn5C)n4)ccc32)C1 [Example 88, 4-(1-(1-(2-fluoro-6-methoxybenzyl)azetidin-3-yl)-1H-benzo[d][1,2,3]triazol-5-yl)-N-(1-methyl-1H-pyrazol-5-yl)pyrimidin-2-amine] | < 100 | 
21 | Cn1nccc1Nc1nccc(-c2ccc3c(c2)nnn3Cc2cccnc2Cl)n1 [Example 66, 4-(1-((2-chloropyridin-3-yl)methyl)-1H-benzo[d][1,2,3]triazol-5-yl)-N-(1-methyl-1H-pyrazol-5-yl)pyrimidin-2-amine] | < 100 | 
22 | Cn1nccc1Nc1nccc(-c2ccc3c(c2)nnn3Cc2ccc(Cl)c(F)c2)n1 [Example 108, 4-(1-(4-chloro-3-fluorobenzyl)-1H-benzo[d][1,2,3]triazol-5-yl)-N-(1-methyl-1H-pyrazol-5-yl)pyrimidin-2-amine] | < 100 | 
23 | Cn1nccc1Nc1nccc(-c2ccc3c(c2)nnn3C2CCc3cc(Cl)ccc32)n1 (stereo not drawn) [Example 59, 4-(1-(5-chloro-2,3-dihydro-1H-inden-1-yl)-1H-benzo[d][1,2,3]triazol-5-yl)-N-(1-methyl-1H-pyrazol-5-yl)pyrimidin-2-amine] | < 100 | 
24 | COC(C)Cn1nnc2cc(-c3ccnc(Nc4ccnn4C)n3)ccc21 (stereo not drawn) [Example 30, 4-(1-(2-methoxypropyl)-1H-benzo[d][1,2,3]triazol-5-yl)-N-(1-methyl-1H-pyrazol-5-yl)pyrimidin-2-amine] | < 100 | 
25 | COc1ncc(F)cc1N1CC[C@H](n2nnc3cc(-c4ccnc(Nc5ccnn5C)n4)ccc32)C1 [Example 81, (S)-4-(1-(1-(5-fluoro-2-methoxypyridin-3-yl)pyrrolidin-3-yl)-1H-benzo[d][1,2,3]triazol-5-yl)-N-(1-methyl-1H-pyrazol-5-yl)pyrimidin-2-amine] |  | 511
26 | COc1ccc(Cn2nnc3cc(-c4ccnc(NCC(C)(C)CO)n4)ccc32)cc1F [Example 16] | < 100 | 
27 | CC(C)Cn1nnc2cc(-c3ccnc(Nc4cnn(C)n4)n3)ccc21 [Example 99, 4-(1-isobutyl-1H-benzo[d][1,2,3]triazol-5-yl)-N-(2-methyl-2H-1,2,3-triazol-4-yl)pyrimidin-2-amine] | < 100 | 
28 | COc1ccc(Cn2nnc3cc(-c4ccnc(NC5(C)COC5)n4)ccc32)cc1F [Example 21, 4-(1-(3-fluoro-4-methoxybenzyl)-1H-benzo[d][1,2,3]triazol-5-yl)-N-(3-methyloxetan-3-yl)pyrimidin-2-amine] | < 100 | 
29 | COc1ccc(Cn2nnc3cc(-c4ccnc(Nc5cc(C6CC6)nn5C)n4)ccc32)cc1F [Example 25, N-(3-cyclopropyl-1-methyl-1H-pyrazol-5-yl)-4-(1-(3-fluoro-4-methoxybenzyl)-1H-benzoyl[d][1,2,3]triazol-5-yl)pyrimidin-2-amine] | < 100 | 
30 | Cn1nccc1Nc1cc(-c2cnc3c(c2)nnn3Cc2cccc(Cl)c2)ccn1 [Example 115, 4-(3-(3-chlorobenzyl)-3H-[1,2,3]triazolo[4,5-b]pyridin-6-yl)-N-(1-methyl-1H-pyrazol-5-yl)pyridin-2-amine] | < 100 | 
31 | Cn1nccc1Nc1nccc(-c2cnc3c(c2)nnn3CCc2cccc(Cl)c2)n1 [Example 118, 4-(3-(3-chlorophenethyl)-3H-[1,2,3]triazolo[4,5-b]pyridin-6-yl)-N-(1-methyl-1H-pyrazol-5-yl)pyrimidin-2-amine] | < 100 | 
32 | Cn1nccc1Nc1nccc(-c2ccc3c(c2)nnn3Cc2ccccc2C(F)(F)F)n1 [Example 122] | < 100 | 
33 | Cn1nccc1Nc1nccc(-c2ccc3c(c2)nnn3[C@H](CO)c2ccc(Cl)c(F)c2)n1 [Example 93, (S)-2-(4-chloro-3-fluorophenyl)-2-(5-(2-((1-methyl-1H--pyrazol-5-yl)amino)pyrimidin-4-yl)-1H-benzo[d][1,2,3]triazol-1-yl)ethanol] | < 100 | 
34 | COc1ccc([C@@H](CO)n2nnc3cc(-c4ccnc(Nc5ccnn5C)n4)ccc32)cc1F [Example 95, (S)-2-(3-fluoro-4-methoxyphenyl)-2-(5-(2-((1-methyl-1H-pyrazol-5-yl)amino)pyrimidin-4-yl)-1H-benzo[d][1,2,3]triazol-1-yl)ethanol] | < 100 | 
35 | Clc1ccc(Cn2nnc3cc(-c4ccnc(NC5CCOCC5)n4)ccc32)cc1 [Example 112] | < 100 | 
36 | Cn1nccc1Nc1nccc(-c2ccc3c(c2)nnn3[C@H]2CNCC(F)(F)C2)n1 [Example 79, (R)-4-(1-(5,5-difluoropiperidin-3-yl)-1H-benzo[d][1,2,3]triazol-5-yl)-N-(1-methyl-1H-pyrazol-5-yl)pyrimidin-2-amine] | < 100 | 
